Assay results taken from patent US8993544B2, “Carbamoylphosphonates as inhibitors and uses thereof” (priority 2009, dated 2015).
Where two headings read alike, the source gives them in different places.

Experiments:
human MMP-3 = biological target: T1, human MMP-3 (Homo sapiens, UniProt P08254); test: Determination of MMP inhibitory potency, MMP-3; type: biochemical
T1 construct: purchased R&D Systems, Minneapolis
Description: (§1) Recombinant enzymes, human MMP-1, MMP-2, MMP-3, MMP-8, MMP-9, MMP-12, MMP-13 and TACE (R&D Systems, Minneapolis) were incubated at four different concentrations with the relevant colorimetric or fluorescent peptide substrates (R&D Systems, Minneapolis) for 3 h. The tested compounds were added at four to six different concentrations and the inhibitory potencies expressed in a colorimetric change, was measured by an ELISA or fluorimeter.

human MMP-8 = biological target: T2, human MMP-8 (Homo sapiens, UniProt P22894); test: Determination of MMP inhibitory potency, MMP-8; type: biochemical
T2 construct: purchased R&D Systems, Minneapolis
Description: as §1

human MMP-9 = biological target: T3, human MMP-9 (Homo sapiens, UniProt P14780); test: Determination of MMP inhibitory potency, MMP-9; type: biochemical
T3 construct: purchased R&D Systems, Minneapolis
Description: as §1

human MMP-12 = biological target: T4, human MMP-12 (Homo sapiens, UniProt P39900); test: Determination of MMP inhibitory potency, MMP-12; type: biochemical
T4 construct: purchased R&D Systems, Minneapolis
Description: as §1

human MMP-13 = biological target: T5, human MMP-13 (Homo sapiens, UniProt P45452); test: Determination of MMP inhibitory potency, MMP-13; type: biochemical
T5 construct: purchased R&D Systems, Minneapolis
Description: as §1

TACE = biological target: T6, TACE (Homo sapiens, UniProt P78536); test: Determination of inhibitory potency, TACE; type: biochemical
T6 construct: purchased R&D Systems, Minneapolis
Description: as §1

MMP and/or ADAM enzyme = test: Duration of inhibitory effect on the enzymes inhibited; type: biochemical, human
Description: Previously, it has been established that cis-2-aminocyclohexycarbamoyl phosphonic acid (cis-ACCP), listed for the purpose of comparison in Tables 2 and 3 as “control”, was an effective nontoxic, in vivo active antimetastatic compound. […] In the study leading to the subject invention, it was determined that the inhibitory effect could be, and in fact was prolonged by substituting carbamoylphosphonic functionality with aromatic ring functionality as in the compounds of the invention. […]
as §1

MMP-2 [1] = biological target: T7, MMP-2 (Homo sapiens, UniProt P08253); test: Determination of MMP inhibitory potency, MMP-2; type: biochemical; design: purchased R&D Systems, Minneapolis
T7 sequence (P08253 110-660): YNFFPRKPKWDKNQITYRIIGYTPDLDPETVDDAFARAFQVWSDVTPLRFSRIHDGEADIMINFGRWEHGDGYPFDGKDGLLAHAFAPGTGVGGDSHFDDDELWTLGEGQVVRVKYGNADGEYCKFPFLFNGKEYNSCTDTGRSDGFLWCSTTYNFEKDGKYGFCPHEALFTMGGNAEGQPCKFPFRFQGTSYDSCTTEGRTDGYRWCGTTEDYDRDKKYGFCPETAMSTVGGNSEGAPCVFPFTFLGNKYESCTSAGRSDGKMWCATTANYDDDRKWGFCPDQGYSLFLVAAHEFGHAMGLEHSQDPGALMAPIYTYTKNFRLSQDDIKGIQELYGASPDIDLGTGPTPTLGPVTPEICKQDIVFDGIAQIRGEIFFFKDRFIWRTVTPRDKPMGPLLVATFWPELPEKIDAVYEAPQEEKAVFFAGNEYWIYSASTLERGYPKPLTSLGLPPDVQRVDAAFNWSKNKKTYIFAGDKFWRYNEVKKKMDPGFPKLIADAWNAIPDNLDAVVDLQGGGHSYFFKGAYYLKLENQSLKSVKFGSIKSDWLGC
Description: as §1

tumor invasion = test: In vitro model of tumor invasion (Boyden chamber, reconstituted basement membrane); type: cell-based; settings: read-out: % Invasion-Inhibition by 50 μM drug
Description: The compound was also evaluated in an in vivo experimental model of metastasis using B16F10 tumor cells in C57B1 mice. […] The assay was carried out in a Boyden chamber with a reconstituted basement membrane (Matrigal).

B16F10 tumor cells = test: Murine melanoma model of experimental metastasis; type: in vivo, C57B1 mice; settings: for % reduction in lung metastases relative to control: daily for three weeks, B16F10 cells i.v.
Description: Experimental metastasis was studied in the murine melanoma model. In this model, B16F10 tumor cells (50 k) were injected into the tail vein of C57B1 6 week old female mice. After 21 days, the metastases formed on the lungs of the mice were counted after appropriate fixation. […] One group received the inhibitor intraperitoneally and the other group orally, dissolved in PBS. Mice were monitored for toxic symptoms at alternate days.

[2] = mouse, in vivo
Description: The initial dose was set to 50 mg/kg as in the previous studies.
One group received the inhibitor intraperitoneally and the other group orally, dissolved in PBS. Mice were monitored for toxic symptoms at alternate days.

MMP-2 [3] = biological target: T7, MMP-2; test: Time dependent inhibition of MMP-2 (period of inhibition); type: biochemical

T2 sequence (P22894 101-467): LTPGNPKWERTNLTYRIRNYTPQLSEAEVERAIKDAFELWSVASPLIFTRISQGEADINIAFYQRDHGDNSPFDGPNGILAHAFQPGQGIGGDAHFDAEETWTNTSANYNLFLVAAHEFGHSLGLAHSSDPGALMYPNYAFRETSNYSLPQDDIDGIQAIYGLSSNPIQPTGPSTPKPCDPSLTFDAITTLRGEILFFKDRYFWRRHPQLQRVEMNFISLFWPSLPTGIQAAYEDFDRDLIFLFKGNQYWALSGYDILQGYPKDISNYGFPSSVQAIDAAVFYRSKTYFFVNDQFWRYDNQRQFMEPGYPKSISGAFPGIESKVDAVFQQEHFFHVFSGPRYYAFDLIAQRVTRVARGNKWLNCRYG
T3 sequence (P14780 94-707): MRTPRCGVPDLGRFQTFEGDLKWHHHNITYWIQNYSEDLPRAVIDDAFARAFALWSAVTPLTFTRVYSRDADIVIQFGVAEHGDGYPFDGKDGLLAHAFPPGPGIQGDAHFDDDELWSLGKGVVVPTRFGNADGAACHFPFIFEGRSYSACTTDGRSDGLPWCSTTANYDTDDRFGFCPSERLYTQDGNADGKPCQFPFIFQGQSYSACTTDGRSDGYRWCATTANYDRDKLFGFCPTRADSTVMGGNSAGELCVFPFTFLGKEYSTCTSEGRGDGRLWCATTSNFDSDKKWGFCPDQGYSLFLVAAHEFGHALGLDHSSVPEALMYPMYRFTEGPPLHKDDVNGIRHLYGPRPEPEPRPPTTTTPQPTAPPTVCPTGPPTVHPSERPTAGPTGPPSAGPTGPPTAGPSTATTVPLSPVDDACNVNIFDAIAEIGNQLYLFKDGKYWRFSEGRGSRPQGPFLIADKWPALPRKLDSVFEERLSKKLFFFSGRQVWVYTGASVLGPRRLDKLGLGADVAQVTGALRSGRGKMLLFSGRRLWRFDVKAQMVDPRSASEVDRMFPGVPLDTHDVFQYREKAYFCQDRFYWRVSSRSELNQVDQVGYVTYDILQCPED
T1 sequence (P08254 100-477): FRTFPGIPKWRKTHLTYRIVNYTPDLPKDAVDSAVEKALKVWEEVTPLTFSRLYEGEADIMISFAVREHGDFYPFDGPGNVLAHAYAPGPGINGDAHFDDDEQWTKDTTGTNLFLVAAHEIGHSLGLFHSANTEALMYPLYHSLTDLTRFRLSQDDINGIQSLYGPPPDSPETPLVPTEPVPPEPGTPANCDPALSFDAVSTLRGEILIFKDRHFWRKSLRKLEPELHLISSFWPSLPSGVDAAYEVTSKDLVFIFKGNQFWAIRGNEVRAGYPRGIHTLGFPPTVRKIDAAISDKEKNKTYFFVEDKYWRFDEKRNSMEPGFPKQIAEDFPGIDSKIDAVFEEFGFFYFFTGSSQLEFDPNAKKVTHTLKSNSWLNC
T6 sequence (P78536 215-824): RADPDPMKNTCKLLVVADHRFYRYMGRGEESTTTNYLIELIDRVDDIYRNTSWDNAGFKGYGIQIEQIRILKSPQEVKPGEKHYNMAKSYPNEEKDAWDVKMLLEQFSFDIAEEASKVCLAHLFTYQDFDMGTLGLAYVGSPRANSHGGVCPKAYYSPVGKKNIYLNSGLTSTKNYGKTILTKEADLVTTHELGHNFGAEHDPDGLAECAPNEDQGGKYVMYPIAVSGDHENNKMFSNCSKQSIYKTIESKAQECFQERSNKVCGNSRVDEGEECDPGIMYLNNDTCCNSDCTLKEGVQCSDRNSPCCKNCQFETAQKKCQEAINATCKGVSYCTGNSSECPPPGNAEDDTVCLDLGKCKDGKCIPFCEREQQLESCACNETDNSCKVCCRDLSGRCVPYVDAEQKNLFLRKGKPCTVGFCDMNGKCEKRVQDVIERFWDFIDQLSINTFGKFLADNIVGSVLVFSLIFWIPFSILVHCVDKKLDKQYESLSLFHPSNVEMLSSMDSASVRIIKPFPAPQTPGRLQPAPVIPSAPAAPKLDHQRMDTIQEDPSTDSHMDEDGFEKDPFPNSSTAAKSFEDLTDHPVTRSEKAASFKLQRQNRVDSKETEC
T4 sequence (P39900 106-470): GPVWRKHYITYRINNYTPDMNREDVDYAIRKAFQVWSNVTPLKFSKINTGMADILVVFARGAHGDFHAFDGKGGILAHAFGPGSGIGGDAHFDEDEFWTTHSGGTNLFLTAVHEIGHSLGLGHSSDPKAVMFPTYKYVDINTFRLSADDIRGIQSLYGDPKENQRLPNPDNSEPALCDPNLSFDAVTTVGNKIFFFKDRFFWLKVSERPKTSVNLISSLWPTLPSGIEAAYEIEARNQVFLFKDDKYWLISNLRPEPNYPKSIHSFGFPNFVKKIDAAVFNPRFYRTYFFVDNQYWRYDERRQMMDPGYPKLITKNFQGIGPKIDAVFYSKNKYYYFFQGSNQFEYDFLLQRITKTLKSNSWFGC

| SMILES | IC50 (human MMP-3; read-out: IC50 (μM) on MMP-3) [µM] | IC50 (human MMP-8; read-out: IC50 (μM) on MMP-8) [µM] | IC50 (human MMP-9; read-out: IC50 (μM) on MMP-9) [µM] | IC50 (human MMP-12; read-out: IC50 (μM) on MMP-12) [µM] | IC50 (human MMP-13; read-out: IC50 (μM) on MMP-13) [µM] | IC50 (TACE; read-out: IC50 (μM) on TACE) [µM] | Duration of inhibitory effect (MMP and/or ADAM enzyme) [min] | IC50 (MMP-2 [1]; read-out: IC50 (μM) on MMP-2) [µM] | inhibition at 50 µM (tumor invasion) [%] | also measured |
| --- | --- | --- | --- | --- | --- | --- | --- | --- | --- | --- |
| O=C(NCCCCCCCNS(=O)(=O)c1ccc(Oc2ccccc2)cc1)P(=O)(O)O [Compound 6] | > 100 | > 100 | > 100 | > 100 | > 100 | 22 | >180 | > 100 | – | – |
| O=C(NCCCCCNS(=O)(=O)c1ccc(Oc2ccccc2)cc1)P(=O)(O)O [Compound 4] | > 100 | > 100 | > 100 | 80 | 60 | > 100 | – | 5 | 62 | inhibition of metastasis formation (B16F10 tumor cells; 50 mg/kg): > 80%; % reduction in lung metastases relative to control (B16F10 tumor cells; Intraperitoneal, 25 mg/kg): 76%; % reduction in lung metastases relative to control (B16F10 tumor cells; Intraperitoneal, 50 mg/kg): 90%; % reduction in lung metastases relative to control (B16F10 tumor cells; Per-oral, 50 mg/kg): 80%; % reduction in lung metastases relative to control (B16F10 tumor cells; Per-oral, 150 mg/kg): 86% |
| O=C(NCCNCCNS(=O)(=O)c1ccc(Oc2ccccc2)cc1)P(=O)(O)O [Compound 10, N-{2-[2-(4-Phenoxybenzenesulfonylamino)-ethylamino]-ethyl}-carbamoylphosphonic acid] | > 100 | > 100 | > 100 | – | – | > 100 | >180 | 20 | – | melting point: 224 to 225 °C |
| O=C(NCCCCCCCCNS(=O)(=O)c1ccc(Oc2ccccc2)cc1)P(=O)(O)O [Compound 7] | > 100 | > 100 | > 100 | > 100 | > 100 | 17 | >180 | > 100 | – | – |
| O=C(NCCCCCCNS(=O)(=O)c1ccc(Oc2ccccc2)cc1)P(=O)(O)O [Compound 5, 1-[4-Phenoxybenzenesulfonamido]-6-[phosphonoformamido]hexane] | > 100 | > 100 | > 100 | > 100 | 80 | 20 | – | 5 | 77 | % reduction in lung metastases relative to control (B16F10 tumor cells; Intraperitoneal, 25 mg/kg): 90%; % reduction in lung metastases relative to control (B16F10 tumor cells; Per-oral, 50 mg/kg): 50%; % reduction in lung metastases relative to control (B16F10 tumor cells; Per-oral, 150 mg/kg): 86%; toxic effects in mice [2]: without any toxic effects; toxicity in mice (text, FIG. 5) [2]: toxic; Toxicity in mice (Table 4) ([2]; ip, 50 mg/kg): Toxic |
| O=C(NCCCNS(=O)(=O)c1ccc(Oc2ccccc2)cc1)P(=O)(O)O [Compound 2, 1-[4-phenoxybenzenesulfonamido]-3-[phosphonoformamido]propane] | 35 | > 100 | > 100 | > 100 | 25 | > 100 | >180 | 10 | 49 | melting point: 165 to 168 °C |
| N[C@H]1CCCC[C@H]1NC(=O)P(=O)(O)O (relative stereo) [YK-162, cis-2-aminocyclohexylcarbamoyl phosphonic acid, reference compound] | – | – | – | – | – | – | <30 | – | 15 | IC50 (human MMP-3): > 100 µM; IC50 (human MMP-8): > 100 µM; IC50 (human MMP-9): 20 µM; IC50 (human MMP-12): > 100 µM; IC50 (human MMP-13): > 100 µM; IC50 (TACE): > 100 µM; period of MMP-2 inhibition (MMP-2 [3]; MMP-2): about 30 minutes; IC50 (MMP-2 [1]): 4 µM |
| O=C(NCCNS(=O)(=O)c1ccc(Oc2ccccc2)cc1)P(=O)(O)O [Compound 1, 1-[4-phenoxybenzenesulfonamido]-2-[phosphonoformamido]ethane] | > 100 | > 100 | > 100 | 60 | 55 | 6 | >180 | 15 | 70 | activity against MMP-3 (human MMP-3): reduced or no activity; activity against MMP-8 (human MMP-8): reduced or no activity; activity against MMP-9 (human MMP-9): reduced or no activity; activity against TACE (TACE): moderate activity; period as active inhibitor (time dependent inhibition, FIG. 1) (MMP-2 [3]): at least 3 hours; inhibition in metastasis formation (number of metastatic foci in the lung) (B16F10 tumor cells; B16F10 tumor cells in C57B1 mice): > 80% |
| O=C(NCCCCNS(=O)(=O)c1ccc(Oc2ccccc2)cc1)P(=O)(O)O [Compound 3, 1-[4-phenoxybenzenesulfonamido]-4-[phosphonoformamido]butane] | > 100 | > 100 | > 100 | > 100 | 25 | > 100 | >180 | 7 | 60 | melting point: 143 to 145 °C |
| N[C@H](CNC(=O)P(=O)(O)O)CNS(=O)(=O)c1ccc(Oc2ccccc2)cc1 [Compound 8R, (R)-N-[2-amino-3-(4-phenoxybenzenesulfonamido)propyl]carbamoylphosphonic acid] | > 100 | 15 | > 100 | 12 | > 100 | > 100 | >180 | 20 | > 100 | – |
| N[C@@H](CNC(=O)P(=O)(O)O)CNS(=O)(=O)c1ccc(Oc2ccccc2)cc1 [Compound 8S, (S)-N-[2-amino-3-(4-phenoxybenzenesulfonamido)propyl]carbamoylphosphonic acid] | – | > 100 | > 100 | > 100 | > 100 | > 100 | >180 | 15 | > 100 | – |
| NC(CNC(=O)P(=O)(O)O)CNS(=O)(=O)c1ccc(Oc2ccccc2)cc1 (racemic) [Compound 8, 2-amino-1-(4-phenoxybenzenesulfonamido)-3-[phosphonoformamido]propane] | > 100 | 12 | 12 | 15 | > 100 | 12 | >180 | 15 | – | duration of affinity to all the enzymes inhibited (MMP and/or ADAM enzyme): > 3 h |
